# Data: PubChem BioAssay (NCI)
#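 Following 48 hours of exposure in 96-well plates, responses at five concentrations were used to interpolate endpoints linearly. The concentration for full growth arrest is given as TGI.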
# Legend:
# Test in all cases: inhibition of tumour cell growth, NCI panel, 48 h
# MCF7 breast = system: MCF7 breast
# KM12 colon = system: KM12 colon
# HOP-62 NSCLC = system: HOP-62 NSCLC
# LOX IMVI melanoma = system: LOX IMVI melanoma
# UO-31 renal = system: UO-31 renal
# U251 CNS = system: U251 CNS
# SNB-75 CNS = system: SNB-75 CNS
# DU-145 prostate = system: DU-145 prostate
# OVCAR-8 ovarian = system: OVCAR-8 ovarian
# TK-10 renal = system: TK-10 renal
# NCI-H460 lung = system: NCI-H460 lung
# MDA-N = system: MDA-N
# UACC-62 melanoma = system: UACC-62 melanoma
# SF-268 CNS = system: SF-268 CNS
# RPMI-8226 leukemia = system: RPMI-8226 leukemia
# NCI-H23 lung = system: NCI-H23 lung
# SK-MEL-5 melanoma = system: SK-MEL-5 melanoma
# HCT-15 colon = system: HCT-15 colon
# 786-0 renal = system: 786-0 renal
# IGROV1 ovarian = system: IGROV1 ovarian
# SF-539 CNS = system: SF-539 CNS
# SN12C renal = system: SN12C renal
# SW-620 colon = system: SW-620 colon
# NCI-H226 lung = system: NCI-H226 lung
# SK-MEL-28 melanoma = system: SK-MEL-28 melanoma
# CAKI-1 renal = system: CAKI-1 renal
# EKVX NSCLC = system: EKVX NSCLC
# PC-3 prostate = system: PC-3 prostate
# MDA-MB-231 breast = system: MDA-MB-231 breast
# HOP-92 NSCLC = system: HOP-92 NSCLC
# M14 melanoma = system: M14 melanoma
# OVCAR-5 ovarian = system: OVCAR-5 ovarian
# SF-295 CNS = system: SF-295 CNS
# OVCAR-3 ovarian = system: OVCAR-3 ovarian
# RXF 393 renal = system: RXF 393 renal
# ACHN renal = system: ACHN renal
# MOLT-4 leukemia = system: MOLT-4 leukemia
# HS 578T breast = system: HS 578T breast
# SK-OV-3 ovarian = system: SK-OV-3 ovarian
# NCI/ADR-RES ovarian = system: NCI/ADR-RES ovarian
# SNB-19 CNS = system: SNB-19 CNS
# HCT-116 colon = system: HCT-116 colon
# BT-549 breast = system: BT-549 breast
# NCI-H522 lung = system: NCI-H522 lung
# MDA-MB-435 = system: MDA-MB-435
# MALME-3M melanoma = system: MALME-3M melanoma
# HCC-2998 colon = system: HCC-2998 colon
# T-47D breast = system: T-47D breast
# A549 NSCLC = system: A549 NSCLC
# HT29 colon = system: HT29 colon
# COLO 205 colon = system: COLO 205 colon
# K-562 leukemia = system: K-562 leukemia
# SR leukemia = system: SR leukemia
# HL-60(TB) leukemia = system: HL-60(TB) leukemia
# OVCAR-4 ovarian = system: OVCAR-4 ovarian
# A498 renal = system: A498 renal
# CCRF-CEM leukemia = system: CCRF-CEM leukemia
# UACC-257 melanoma = system: UACC-257 melanoma
# SK-MEL-2 melanoma = system: SK-MEL-2 melanoma
structure (smiles),measurement,setting,value
CNC(=O)CCC(NC(=O)OC(C)(C)C)C(=O)NC(Cc1ccc(NC(=O)CCCCC(C)=O)cc1)C(=O)NCC(=O)NC (centres undefined),TGI,MCF7 breast,> 100 µM
same,TGI,KM12 colon,> 100 µM
same,TGI,HOP-62 NSCLC,> 100 µM
same,TGI,LOX IMVI melanoma,> 100 µM
same,TGI,UO-31 renal,> 100 µM
same,TGI,U251 CNS,> 100 µM
same,TGI,SNB-75 CNS,> 100 µM
same,TGI,DU-145 prostate,> 100 µM
same,TGI,OVCAR-8 ovarian,> 100 µM
same,TGI,TK-10 renal,> 100 µM
same,TGI,NCI-H460 lung,> 100 µM
same,TGI,MDA-N,> 100 µM
same,TGI,UACC-62 melanoma,> 100 µM
same,TGI,SF-268 CNS,> 100 µM
same,TGI,RPMI-8226 leukemia,> 100 µM
same,TGI,NCI-H23 lung,> 100 µM
same,TGI,SK-MEL-5 melanoma,> 100 µM
same,TGI,HCT-15 colon,> 100 µM
same,TGI,786-0 renal,> 100 µM
same,TGI,IGROV1 ovarian,> 100 µM
same,TGI,SF-539 CNS,> 100 µM
same,TGI,SN12C renal,> 100 µM
same,TGI,SW-620 colon,> 100 µM
same,TGI,NCI-H226 lung,> 100 µM
same,TGI,SK-MEL-28 melanoma,> 100 µM
same,TGI,CAKI-1 renal,> 100 µM
same,TGI,EKVX NSCLC,> 100 µM
same,TGI,PC-3 prostate,> 100 µM
same,TGI,MDA-MB-231 breast,> 100 µM
same,TGI,HOP-92 NSCLC,> 100 µM
same,TGI,M14 melanoma,> 100 µM
same,TGI,OVCAR-5 ovarian,> 100 µM
same,TGI,SF-295 CNS,> 100 µM
same,TGI,OVCAR-3 ovarian,> 100 µM
same,TGI,RXF 393 renal,> 100 µM
same,TGI,ACHN renal,> 100 µM
same,TGI,MOLT-4 leukemia,> 100 µM
same,TGI,HS 578T breast,> 100 µM
same,TGI,SK-OV-3 ovarian,> 100 µM
same,TGI,NCI/ADR-RES ovarian,> 100 µM
same,TGI,SNB-19 CNS,> 100 µM
same,TGI,HCT-116 colon,> 100 µM
same,TGI,BT-549 breast,> 100 µM
same,TGI,NCI-H522 lung,> 100 µM
same,TGI,MDA-MB-435,> 100 µM
same,TGI,MALME-3M melanoma,> 100 µM
same,TGI,HCC-2998 colon,> 100 µM
same,TGI,T-47D breast,> 100 µM
same,TGI,A549 NSCLC,> 100 µM
same,TGI,HT29 colon,> 100 µM
same,TGI,COLO 205 colon,> 100 µM
same,TGI,K-562 leukemia,> 100 µM
same,TGI,SR leukemia,> 100 µM
same,TGI,HL-60(TB) leukemia,> 100 µM
same,TGI,OVCAR-4 ovarian,> 100 µM
same,TGI,A498 renal,> 100 µM
C/C(=N\NC(=S)NCCNC(=S)N/N=C(\C)c1ccccn1)c1ccccn1,TGI,MCF7 breast,> 100 µM
same,TGI,KM12 colon,> 100 µM
same,TGI,HOP-62 NSCLC,12.5 µM
same,TGI,CCRF-CEM leukemia,> 26.1 µM
same,TGI,LOX IMVI melanoma,30.9 µM
same,TGI,UO-31 renal,> 100 µM
same,TGI,U251 CNS,> 48.6 µM
same,TGI,SNB-75 CNS,11.2 µM
same,TGI,DU-145 prostate,> 100 µM
same,TGI,OVCAR-8 ovarian,> 100 µM
same,TGI,TK-10 renal,> 30 µM
same,TGI,NCI-H460 lung,> 20.2 µM
same,TGI,MDA-N,> 100 µM
same,TGI,UACC-62 melanoma,11.7 µM
same,TGI,SF-268 CNS,49 µM
same,TGI,RPMI-8226 leukemia,9.67 µM
same,TGI,NCI-H23 lung,> 63.8 µM
same,TGI,HCT-15 colon,> 25.9 µM
same,TGI,786-0 renal,6.05 µM
same,TGI,IGROV1 ovarian,> 31.5 µM
same,TGI,SF-539 CNS,6.63 µM
same,TGI,SN12C renal,7.31 µM
same,TGI,SW-620 colon,> 100 µM
same,TGI,NCI-H226 lung,> 26.9 µM
same,TGI,SK-MEL-28 melanoma,> 100 µM
same,TGI,CAKI-1 renal,> 89.7 µM
same,TGI,EKVX NSCLC,> 100 µM
same,TGI,PC-3 prostate,> 100 µM
same,TGI,MDA-MB-231 breast,> 70.9 µM
same,TGI,HOP-92 NSCLC,> 100 µM
same,TGI,M14 melanoma,4.27 µM
same,TGI,OVCAR-5 ovarian,> 100 µM
same,TGI,SF-295 CNS,> 100 µM
same,TGI,OVCAR-3 ovarian,> 100 µM
same,TGI,RXF 393 renal,> 100 µM
same,TGI,ACHN renal,> 28.5 µM
same,TGI,MOLT-4 leukemia,> 26 µM
same,TGI,HS 578T breast,> 100 µM
same,TGI,SK-OV-3 ovarian,> 100 µM
same,TGI,NCI/ADR-RES ovarian,6.06 µM
same,TGI,SNB-19 CNS,> 100 µM
same,TGI,HCT-116 colon,31.4 µM
same,TGI,BT-549 breast,47.8 µM
same,TGI,NCI-H522 lung,> 100 µM
same,TGI,MDA-MB-435,> 100 µM
same,TGI,MALME-3M melanoma,> 78.8 µM
same,TGI,HCC-2998 colon,> 100 µM
same,TGI,T-47D breast,> 29.3 µM
same,TGI,UACC-257 melanoma,22.3 µM
same,TGI,A549 NSCLC,> 100 µM
same,TGI,HT29 colon,> 100 µM
same,TGI,SK-MEL-2 melanoma,> 100 µM
same,TGI,COLO 205 colon,> 29.2 µM
same,TGI,K-562 leukemia,> 100 µM
same,TGI,SR leukemia,2.53 µM
same,TGI,HL-60(TB) leukemia,> 22.6 µM
same,TGI,OVCAR-4 ovarian,> 71.2 µM
same,TGI,A498 renal,37.5 µM
